Experimental data as given in patent US20050107386A1, “Methods of treating diseases and disorders by targeting multiple kinases” (priority 2003, published 2005).

What was measured:
Assay type in all cases: biochemical
Conditions in all cases: 3 μM; percent of control kinase activity
[1] = biological target: CaMKIV(h) (Homo sapiens, UniProt Q16566); assay: CaMKIV(h) kinase assay
Protocol: (§1) Six compounds (presumptive single agents) were tested against a panel of 50 kinases. The results are presented in Table 2; numbers for each kinase indicate the percent of control kinase activity in the presence of a 3μM concentration of the indicated agent.
(§2) Agents that target two or more different kinases are useful in the methods of the invention as described elsewhere herein. Such compounds may be identified, and their effect on certain kinases may be identified, using the assays briefly described below in Examples 4-83. Each of these assays was carried out as described in Davies et al., Biochem. J., 351:95-105 (2000). All assays were carried out at 10 μM ATP unless otherwise noted.
(§3) In a final reaction volume of 25 μl, CaMKIV (h) (5-10 mU) is incubated with 40 mM Hepes pH 7.4, 5 mM CaCl2, 30 μg/ml calmodulin, 30 μM […] (SEQ ID NO:11), 10 mM MgAcetate and [γ-^33P-ATP] (specific activity approx. 500 cpm/pmol, concentration as required). The reaction is initiated by the addition of Mg^2+ [γ-^33P-ATP]. After incubation for 40 minutes at room temperature, the reaction is stopped by the addition of 5 μl of a 3% phosphoric acid solution. 10 μl of the reaction is then spotted onto a P30 filtermat and washed three times for 5 minutes in 75 mM phosphoric acid and once in methanol prior to drying and scintillation counting.

[2] = biological target: GSK3α(h) (Homo sapiens, UniProt P49840); assay: GSK3α(h) kinase assay
Protocol: as §1, §2

[3] = biological target: T1, PDK1(h) (Homo sapiens, UniProt O15530); assay: PDK1(h) kinase assay
T1 sequence (O15530 1-556): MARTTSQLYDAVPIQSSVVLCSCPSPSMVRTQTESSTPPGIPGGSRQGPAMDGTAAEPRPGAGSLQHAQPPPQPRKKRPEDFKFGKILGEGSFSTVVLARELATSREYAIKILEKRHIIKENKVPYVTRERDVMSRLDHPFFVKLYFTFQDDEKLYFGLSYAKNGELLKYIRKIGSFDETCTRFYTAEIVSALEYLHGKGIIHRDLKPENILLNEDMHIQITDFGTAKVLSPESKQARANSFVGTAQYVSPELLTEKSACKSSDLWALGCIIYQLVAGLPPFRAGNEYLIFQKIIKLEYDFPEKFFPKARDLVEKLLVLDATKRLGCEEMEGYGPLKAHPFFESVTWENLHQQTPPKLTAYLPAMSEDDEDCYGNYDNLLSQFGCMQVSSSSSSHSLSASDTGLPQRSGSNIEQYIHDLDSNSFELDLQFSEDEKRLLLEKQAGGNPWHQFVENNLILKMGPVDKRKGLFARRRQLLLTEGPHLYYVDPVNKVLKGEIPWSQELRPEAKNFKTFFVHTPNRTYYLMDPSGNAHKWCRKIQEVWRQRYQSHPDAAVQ
Protocol: as §1, §2
as §3, with “μl, PDK1” for “μl, CaMKIV”, “with 50” for “with 40”, “mM Tris” for “mM Hepes”, “pH 7.5, 100” for “pH 7.4, 5 mM CaCl2, 30 μg/ml calmodulin, 30”, “ID NO:13) (PDKtide), 0.1% β-mercaptoethanol,” for “ID NO:11),”

[4] = biological target: T2, PKCε(h) (Homo sapiens, UniProt Q02156); assay: PKCε(h) kinase assay
T2 sequence (Q02156 1-737): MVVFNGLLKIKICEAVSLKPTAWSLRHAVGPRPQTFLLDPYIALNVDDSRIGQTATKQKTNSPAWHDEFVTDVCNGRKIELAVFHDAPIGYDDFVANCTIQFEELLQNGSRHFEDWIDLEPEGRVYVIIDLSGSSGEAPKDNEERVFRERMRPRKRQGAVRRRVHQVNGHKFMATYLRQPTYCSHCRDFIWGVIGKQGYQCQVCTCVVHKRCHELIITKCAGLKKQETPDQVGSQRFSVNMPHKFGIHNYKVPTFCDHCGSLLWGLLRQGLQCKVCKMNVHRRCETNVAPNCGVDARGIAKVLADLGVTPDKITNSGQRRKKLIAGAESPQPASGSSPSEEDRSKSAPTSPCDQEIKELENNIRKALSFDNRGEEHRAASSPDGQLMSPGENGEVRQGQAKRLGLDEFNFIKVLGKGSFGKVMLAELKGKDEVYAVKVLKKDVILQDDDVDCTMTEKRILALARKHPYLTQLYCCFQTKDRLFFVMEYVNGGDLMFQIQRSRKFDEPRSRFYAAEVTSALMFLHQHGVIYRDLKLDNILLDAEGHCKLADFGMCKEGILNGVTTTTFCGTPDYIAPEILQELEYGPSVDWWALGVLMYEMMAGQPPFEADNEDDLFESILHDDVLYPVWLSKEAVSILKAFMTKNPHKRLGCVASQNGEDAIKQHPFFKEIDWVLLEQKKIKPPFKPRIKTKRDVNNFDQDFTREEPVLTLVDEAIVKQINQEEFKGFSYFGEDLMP
Protocol: as §1, §2
as §3, with “μl, PKCε(h)” for “μl, CaMKIV (h)”, “with 20” for “with 40”, “7.4, 0.03% Triton X-100, 0.1 mg/ml phosphatidylserine, 10” for “7.4, 5 mM CaCl2, 30”, “μg/ml diacylglycerol, 50” for “μg/ml calmodulin, 30”, “ID NO: 18),” for “ID NO:11),”, “[γ-^33P-ATP] (Specific” for “[γ-^33P-ATP] (specific”

Sequence of GSK3α(h) (P49840 whole entry): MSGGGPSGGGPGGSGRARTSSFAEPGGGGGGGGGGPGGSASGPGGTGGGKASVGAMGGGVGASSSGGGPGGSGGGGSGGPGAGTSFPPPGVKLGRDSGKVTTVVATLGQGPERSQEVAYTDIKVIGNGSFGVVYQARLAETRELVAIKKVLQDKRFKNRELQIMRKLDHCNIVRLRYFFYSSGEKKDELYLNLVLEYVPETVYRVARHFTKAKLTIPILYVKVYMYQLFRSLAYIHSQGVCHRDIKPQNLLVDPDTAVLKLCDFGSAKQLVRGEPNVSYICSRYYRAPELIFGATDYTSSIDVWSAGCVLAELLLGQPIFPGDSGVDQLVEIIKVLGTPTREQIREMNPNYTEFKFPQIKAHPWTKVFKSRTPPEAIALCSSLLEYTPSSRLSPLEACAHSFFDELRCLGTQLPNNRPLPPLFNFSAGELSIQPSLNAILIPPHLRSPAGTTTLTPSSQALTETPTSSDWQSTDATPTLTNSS

SMILES | Inhibitory activity (% of control), CaMKIV(h) [1] | Inhibitory activity (% of control), GSK3α(h) [2] | Inhibitory activity (% of control), PDK1(h) [3] | Inhibitory activity (% of control), PKCε(h) [4]
COc1ccc2cc(-c3n[nH]c4ccc(-c5n[nH]c(CN6CCOCC6)n5)cc34)ccc2c1 [CC001, 3-(6-Methoxynaphthalen-2-yl)-5-(5-Morpholin-4-Ylmethyl-1H-[1,2,4]Triazol-3-yl)-1H-Indazole] | 82 % of control | 15 % of control | 59 % of control | 82 % of control
CC(C)Cc1nc(-c2ccc3[nH]nc(-c4ccc5cc(OCCN6CCCC6)ccc5c4)c3c2)n[nH]1 [CC002, 5-(5-Isobutyl-1H-[1,2,4]Triazol-3-yl)-3-[6-(2-Pyrrolidin-1-yl-Ethoxy)-Naphthalen-2-yl]-1H-Indazole] | 60 % of control | 38 % of control | 58 % of control | 58 % of control
CC(C)(C)Cc1nc(-c2ccc3[nH]nc(-c4ccc5cc(OCc6ccccn6)ccc5c4)c3c2)n[nH]1 [CC004, 5-[5-(2,2-Dimethyl-propyl)-1H-[1,2,4]triazol-3-yl]-3-[6-(pyridine-2-ylmethoxy)-naphthalen-2-yl]-1H-indazole] | 80 % of control | 65 % of control | 70 % of control | 105 % of control
CCN1CCC[C@H]1COc1ccc2cc(-c3n[nH]c4ccc(-c5nc(CC(C)(C)C)n[nH]5)cc34)ccc2c1 [CC005, 2-[((2s)-1-ethylpyrrolidin-2-yl)methoxy]-6-{5-[3-(2,2-Dimethylpropyl)(1H-1,2,4,-triazol-5-yl)](1H-indazol-3-yl)}naphthalene] | 22 % of control | 35 % of control | 59 % of control | 84 % of control

Other lines, results leading:

Inhibitory activity (% of control), CaMKIV(h) [1] | Inhibitory activity (% of control), GSK3α(h) [2] | Inhibitory activity (% of control), PDK1(h) [3] | Inhibitory activity (% of control), PKCε(h) [4] | SMILES
95 % of control | 38 % of control | 43 % of control | 82 % of control | Fc1ccc(-c2n[nH]c3ccc(-c4n[nH]c(C5CCCC5)n4)cc23)cc1 [CC006, 5-(5-Cyclopentyl-1H-[1,2,4]triazol-3-yl)-3-(4-fluoro-phenyl)-1H-indazole, reference compound]
86 % of control | 18 % of control | 97 % of control | 79 % of control | O=C(NC1CCCC1)c1cccc(-c2n[nH]c3ccc(-c4nc[nH]n4)cc23)c1 [CC007, 3-(5-(1H-1,2,4-triazol-3-yl)(1H-indazol-3-yl))phenyl-N-cyclopentylcarboxamide, reference compound]
